Measurements from PubChem BioAssay (NCI).
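Exposure lasted 48 hours, with cells grown in 96-well plates and compounds tested at five concentrations. TGI: total growth inhibition.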

Assays:
Experiment in all cases: NCI tumour cell line growth inhibition, 48 h
SF-295 CNS = system: SF-295 CNS
PC-3 prostate = system: PC-3 prostate
HCC-2998 colon = system: HCC-2998 colon
SNB-19 CNS = system: SNB-19 CNS
U251 CNS = system: U251 CNS
EKVX NSCLC = system: EKVX NSCLC
MALME-3M melanoma = system: MALME-3M melanoma
SK-MEL-2 melanoma = system: SK-MEL-2 melanoma
RPMI-8226 leukemia = system: RPMI-8226 leukemia
MDA-MB-435 = system: MDA-MB-435
ACHN renal = system: ACHN renal
SF-268 CNS = system: SF-268 CNS
NCI-H522 lung = system: NCI-H522 lung
UACC-62 melanoma = system: UACC-62 melanoma
A498 renal = system: A498 renal
SW-620 colon = system: SW-620 colon
UACC-257 melanoma = system: UACC-257 melanoma
HOP-62 NSCLC = system: HOP-62 NSCLC
OVCAR-4 ovarian = system: OVCAR-4 ovarian
OVCAR-3 ovarian = system: OVCAR-3 ovarian
IGROV1 ovarian = system: IGROV1 ovarian
RXF 393 renal = system: RXF 393 renal
UO-31 renal = system: UO-31 renal
HCT-116 colon = system: HCT-116 colon
SNB-75 CNS = system: SNB-75 CNS
NCI/ADR-RES ovarian = system: NCI/ADR-RES ovarian
MDA-MB-231 breast = system: MDA-MB-231 breast
NCI-H23 lung = system: NCI-H23 lung
A549 NSCLC = system: A549 NSCLC
SN12C renal = system: SN12C renal
SF-539 CNS = system: SF-539 CNS
HS 578T breast = system: HS 578T breast
HCT-15 colon = system: HCT-15 colon
HL-60(TB) leukemia = system: HL-60(TB) leukemia
M14 melanoma = system: M14 melanoma
CCRF-CEM leukemia = system: CCRF-CEM leukemia
SK-OV-3 ovarian = system: SK-OV-3 ovarian
CAKI-1 renal = system: CAKI-1 renal
DU-145 prostate = system: DU-145 prostate
SK-MEL-28 melanoma = system: SK-MEL-28 melanoma
MOLT-4 leukemia = system: MOLT-4 leukemia
786-0 renal = system: 786-0 renal
HOP-92 NSCLC = system: HOP-92 NSCLC
T-47D breast = system: T-47D breast
HT29 colon = system: HT29 colon
SR leukemia = system: SR leukemia
SK-MEL-5 melanoma = system: SK-MEL-5 melanoma
TK-10 renal = system: TK-10 renal
KM12 colon = system: KM12 colon
K-562 leukemia = system: K-562 leukemia
NCI-H460 lung = system: NCI-H460 lung
LOX IMVI melanoma = system: LOX IMVI melanoma
MCF7 breast = system: MCF7 breast
COLO 205 colon = system: COLO 205 colon
OVCAR-5 ovarian = system: OVCAR-5 ovarian
MDA-N = system: MDA-N
NCI-H226 lung = system: NCI-H226 lung
OVCAR-8 ovarian = system: OVCAR-8 ovarian
BT-549 breast = system: BT-549 breast

Measured: TGI

O=C1CCc2cc3c(cc21)CC1(Cc2ccccc2C1)C3
25.8 µM: RPMI-8226 leukemia
> 46.3 µM: HCT-116 colon
47.2 µM: CAKI-1 renal
35.6 µM: HOP-92 NSCLC
> 91.7 µM: ACHN renal
> 80.8 µM: OVCAR-3 ovarian
7.03 µM: CCRF-CEM leukemia
> 100 µM: SNB-19 CNS | U251 CNS | EKVX NSCLC | MALME-3M melanoma | SF-268 CNS | SW-620 colon | OVCAR-4 ovarian | IGROV1 ovarian | UO-31 renal | MDA-MB-231 breast | A549 NSCLC | SN12C renal | HS 578T breast | HCT-15 colon | M14 melanoma | SK-OV-3 ovarian | DU-145 prostate | SK-MEL-28 melanoma | 786-0 renal | T-47D breast | TK-10 renal | KM12 colon | NCI-H460 lung | LOX IMVI melanoma | MCF7 breast | OVCAR-8 ovarian
> 86.9 µM: OVCAR-5 ovarian
14.2 µM: HT29 colon
17.2 µM: COLO 205 colon
12.7 µM: MOLT-4 leukemia
56.2 µM: SF-539 CNS
> 86.5 µM: NCI-H23 lung
> 60.1 µM: NCI/ADR-RES ovarian
5.26 µM: HL-60(TB) leukemia
> 70.5 µM: HCC-2998 colon
> 93.6 µM: PC-3 prostate
5.38 µM: K-562 leukemia
> 76.8 µM: RXF 393 renal
4.76 µM: MDA-N
5.92 µM: MDA-MB-435
5.18 µM: SR leukemia
6.37 µM: SK-MEL-2 melanoma
> 88.3 µM: UACC-62 melanoma
> 84.6 µM: HOP-62 NSCLC
17.8 µM: SK-MEL-5 melanoma
> 60.8 µM: SNB-75 CNS
> 87.1 µM: SF-295 CNS
67.7 µM: NCI-H226 lung
> 79.9 µM: NCI-H522 lung
65.2 µM: UACC-257 melanoma
66.6 µM: A498 renal

CCOC(=O)C(O)(NC(=O)Nc1ccc(F)cc1)C(F)(F)F (centres undefined)
> 100 µM: PC-3 prostate | HCC-2998 colon | SNB-19 CNS | U251 CNS | EKVX NSCLC | SK-MEL-2 melanoma | RPMI-8226 leukemia | MDA-MB-435 | ACHN renal | SF-268 CNS | A498 renal | SW-620 colon | UACC-257 melanoma | IGROV1 ovarian | RXF 393 renal | UO-31 renal | HCT-116 colon | SNB-75 CNS | NCI/ADR-RES ovarian | NCI-H23 lung | A549 NSCLC | SN12C renal | SF-539 CNS | HS 578T breast | HCT-15 colon | HL-60(TB) leukemia | M14 melanoma | CCRF-CEM leukemia | SK-OV-3 ovarian | CAKI-1 renal | SK-MEL-28 melanoma | MOLT-4 leukemia | 786-0 renal | T-47D breast | HT29 colon | SR leukemia | SK-MEL-5 melanoma | TK-10 renal | BT-549 breast | K-562 leukemia | LOX IMVI melanoma | COLO 205 colon | OVCAR-5 ovarian | MDA-N | OVCAR-8 ovarian

CN1CN(c2ccccc2)C2(CCN(CCCC(=O)c3cccs3)CC2)C1=O
73.6 µM: HT29 colon
87.6 µM: TK-10 renal
87.4 µM: OVCAR-5 ovarian
72.6 µM: MCF7 breast
38.9 µM: HCC-2998 colon
65 µM: SK-MEL-5 melanoma
90.6 µM: UACC-257 melanoma
85.6 µM: SF-295 CNS
> 100 µM: PC-3 prostate | SNB-19 CNS | U251 CNS | MALME-3M melanoma | RPMI-8226 leukemia | ACHN renal | SF-268 CNS | NCI-H522 lung | UACC-62 melanoma | SW-620 colon | OVCAR-3 ovarian | IGROV1 ovarian | RXF 393 renal | UO-31 renal | HCT-116 colon | SNB-75 CNS | NCI/ADR-RES ovarian | MDA-MB-231 breast | NCI-H23 lung | A549 NSCLC | SN12C renal | HCT-15 colon | HL-60(TB) leukemia | M14 melanoma | CCRF-CEM leukemia | SK-OV-3 ovarian | CAKI-1 renal | DU-145 prostate | SK-MEL-28 melanoma | MOLT-4 leukemia | 786-0 renal | T-47D breast | SR leukemia | KM12 colon | K-562 leukemia | LOX IMVI melanoma | MDA-N | NCI-H226 lung | OVCAR-8 ovarian
47.7 µM: COLO 205 colon
64 µM: SF-539 CNS
80.9 µM: EKVX NSCLC
37.4 µM: HOP-62 NSCLC

CC1OC(c2ccccc2)=CC(OCc2ccccc2)[C@H]1OCc1ccccc1 (some centres undefined)
> 10 µM: SF-295 CNS | PC-3 prostate | HCC-2998 colon | EKVX NSCLC | MALME-3M melanoma | RPMI-8226 leukemia | SF-268 CNS | UACC-62 melanoma | SW-620 colon | HOP-62 NSCLC | IGROV1 ovarian | RXF 393 renal | SNB-75 CNS | MDA-MB-231 breast | NCI-H23 lung | A549 NSCLC | SN12C renal | HCT-15 colon | M14 melanoma | CCRF-CEM leukemia | SK-OV-3 ovarian | CAKI-1 renal | SK-MEL-28 melanoma | MOLT-4 leukemia | 786-0 renal | T-47D breast | SR leukemia | SK-MEL-5 melanoma | TK-10 renal | KM12 colon | MCF7 breast | MDA-N | OVCAR-8 ovarian

CSCC[C@H]1C(=O)N=C(N)N1C(=O)OCc1ccccc1
84.1 µM: NCI-H226 lung
39.7 µM: COLO 205 colon
96.8 µM: SK-MEL-28 melanoma
63.9 µM: UACC-62 melanoma
46.5 µM: NCI-H522 lung
71.9 µM: K-562 leukemia
55.8 µM: SR leukemia
51.5 µM: MOLT-4 leukemia
> 100 µM: SF-295 CNS | PC-3 prostate | HCC-2998 colon | SNB-19 CNS | U251 CNS | EKVX NSCLC | MALME-3M melanoma | SK-MEL-2 melanoma | RPMI-8226 leukemia | MDA-MB-435 | ACHN renal | SF-268 CNS | A498 renal | UACC-257 melanoma | HOP-62 NSCLC | OVCAR-4 ovarian | OVCAR-3 ovarian | IGROV1 ovarian | UO-31 renal | SNB-75 CNS | NCI/ADR-RES ovarian | MDA-MB-231 breast | SN12C renal | HCT-15 colon | DU-145 prostate | 786-0 renal | HT29 colon | SK-MEL-5 melanoma | TK-10 renal | KM12 colon | NCI-H460 lung | LOX IMVI melanoma | MCF7 breast | OVCAR-5 ovarian | MDA-N | OVCAR-8 ovarian
33.9 µM: SW-620 colon
45.6 µM: RXF 393 renal
60.9 µM: BT-549 breast
37.7 µM: HCT-116 colon
44.8 µM: HL-60(TB) leukemia
49.9 µM: HS 578T breast
55.4 µM: NCI-H23 lung
44.3 µM: CAKI-1 renal
